# Test results: patent US4112101A, “N-(Pyridyl)-1H-(or 2H) tetrazole-5-carboxamide derivatives for the prevention of immediate type hypersensitivity reactions” (American Home Products Corporation, priority 1977, dated 1978)
# Counter-ions that a name gives are not always drawn.
# Tested on: passive cutaneous anaphylaxis using rat homocytotropic antibody
# Assay: rat passive cutaneous anaphylaxis test (rat PCA test)
# Type: in vivo
# Protocol: The technique employed to establish the anti-allergic activity of the 1H-tetrazole-5-carboxamide derivatives is reported in Immunology, vol. 16, pp. 749-760 (1969) and involves four male Charles River rats (200-250 grams body weight) per group to provide a control, a host for administration of a standard anti-allergic compound (disodium cromoglycate) and animals for the test compound. The rats were injected intracutaneously on their shaved backs with sera from rats immunized with egg albumin and pertussis vaccine. Twenty-four hours after the initial injections, the test compound is administered intraperitoneally or orally at a dosage level of 200 milligrams per kilogram host body weight or less. Five minutes later one milliliter of a 0.5 percent solution of Evans blue dye and 8 milligrams of egg albumin is injected intravenously. After 40 minutes, the animal is sacrificed and the bleb size on its back is measured. The mean bleb size for the animals administered the test compound is calculated and the percent inhibition is determined by comparison with the control animal.
# In other words, the compounds of this invention block the release of mediators commonly resulting from the antigen-antibody reaction as exemplified in a passive cutaneous anaphylaxis test (PCA) using rat homocytotropic antibody -- a known correlate of human reaginic antibody.
compound,measurement,setting,value
"O=C(Nc1ccccn1)c1nn[nH]n1 [Example 1, N-(2-Pyridinyl)-1H-tetrazole-5-carboxamide, sodium salt]",% inhibition,"intraperitoneal (i.p.), dose 1.0 mg/kg",82.6%
same,% inhibition,"intraperitoneal (i.p.), dose 10 mg/kg",99.0%
same,% inhibition,"intraperitoneal (i.p.), dose 100 mg/kg",72.5%
same,% inhibition,"intraperitoneal (i.p.), dose .01 mg/kg",24.8%
same,% inhibition,"intraperitoneal (i.p.), dose .1 mg/kg",41.9%
same,% inhibition,"oral (p.o.), dose 1 mg/kg",62.6%
same,% inhibition,"oral (p.o.), dose 10 mg/kg",94.8%
same,% inhibition,"oral (p.o.), dose 100 mg/kg",100.0%
same,% inhibition,"oral (p.o.), dose .01 mg/kg",40.4%
same,% inhibition,"oral (p.o.), dose .1 mg/kg",25.1%
